These results are taken from PubChem BioAssay (NCI).

Among the test systems are A498 renal; HCC-2998 colon; HOP-92 NSCLC; HT29 colon; IGROV1 ovarian; K-562 leukemia; KM12 colon; M14 melanoma; MOLT-4 leukemia; NCI-H522 lung; OVCAR-5 ovarian; SF-295 CNS; SF-539 CNS; TK-10 renal; HCT-15 colon; MDA-MB-435; RPMI-8226 leukemia.
Assay in all cases: DTP human tumour cell line panel, 48 h

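Compound exposure: 48 hours, 5 concentrations, 96-well plates. TGI: concentration producing complete growth inhibition.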

Usually TGI stands for the concentration giving total growth inhibition. Read a high TGI as lower sensitivity of the cells. As for `CC#C[I+]c1ccccc1`, the total growth inhibition concentration (TGI) in the experiment with A498 renal is > 100 µM; in the experiment on HCC-2998 colon, 56.6 µM; in the experiment on HOP-92 NSCLC it was 30.8 µM; in the experiment with HT29 colon, 34.5 µM; in the experiment with IGROV1 ovarian it was > 100 µM; with K-562 leukemia, 33.3 µM. Moreover, the TGI is 40.1 µM in the experiment on KM12 colon; 37.1 µM in the experiment on M14 melanoma; 42.2 µM in the experiment with MOLT-4 leukemia; 13.1 µM in the experiment with NCI-H522 lung; 77.8 µM in the experiment on OVCAR-5 ovarian; > 100 µM in the experiment on SF-295 CNS. Also, the figures for the TGI in the experiment with SF-539 CNS and in the experiment on TK-10 renal were 35.1 µM and 30.4 µM, respectively.

With `COc1nc2sc3c(c2c(=O)n1CCCSSCCCn1c(OC)nc2sc4c(c2c1=O)CCCC4)CCCC3`, the concentration for total growth inhibition (TGI) in the experiment on HCC-2998 colon, in the experiment with HCT-15 colon, in the experiment on HOP-92 NSCLC, in the experiment with HT29 colon, in the experiment on IGROV1 ovarian and in the experiment with K-562 leukemia was > 100 µM each time. For the same compound, the concentration for total growth inhibition (TGI) in the experiment with KM12 colon, with M14 melanoma, with MDA-MB-435, in the experiment on MOLT-4 leukemia, in the experiment with NCI-H522 lung and with OVCAR-5 ovarian was > 100 µM in each case. In addition, the TGI in the experiment with RPMI-8226 leukemia, in the experiment with SF-295 CNS, in the experiment with SF-539 CNS and in the experiment on TK-10 renal was > 100 µM throughout.

For the compound `N/N=C1/CCCc2nonc21`, the TGI with HCC-2998 colon, in the experiment on HCT-15 colon, with HOP-92 NSCLC, in the experiment with HT29 colon, in the experiment on IGROV1 ovarian and in the experiment with K-562 leukemia was > 100 µM throughout. The concentration for total growth inhibition (TGI) in the experiment with KM12 colon, with M14 melanoma, in the experiment with MDA-MB-435, with MOLT-4 leukemia, in the experiment with OVCAR-5 ovarian and in the experiment with RPMI-8226 leukemia was > 100 µM throughout. In addition, the concentration for total growth inhibition (TGI) with SF-295 CNS, with SF-539 CNS and in the experiment on TK-10 renal was > 100 µM throughout.

Regarding `O=[N+]([O-])c1cc(-[n+]2cc([O-])on2)ccc1F`, the total growth inhibition concentration (TGI) in the experiment with HCC-2998 colon is 28.6 µM; with HCT-15 colon it was 52.8 µM; in the experiment on HOP-92 NSCLC, 32.6 µM; in the experiment with HT29 colon it was 33.3 µM; in the experiment with IGROV1 ovarian, 28.3 µM; with K-562 leukemia it was > 100 µM. Besides, the total growth inhibition concentration (TGI) is 31.5 µM with KM12 colon; 29.6 µM with M14 melanoma; 29.8 µM with MDA-MB-435; 22.2 µM in the experiment with NCI-H522 lung; 31.2 µM in the experiment with OVCAR-5 ovarian; > 100 µM in the experiment on RPMI-8226 leukemia. Moreover, the total growth inhibition concentration (TGI) amounted to 31.5 µM in the experiment on SF-295 CNS and 33.1 µM in the experiment with TK-10 renal.

With `N#CC(c1cc2c(cc1Br)OCO2)N1CCOCC1` (configuration not stated), the TGI in the experiment with HCC-2998 colon was > 100 µM; with HOP-92 NSCLC, > 100 µM; in the experiment on HT29 colon, > 100 µM; in the experiment with IGROV1 ovarian, > 100 µM; in the experiment with K-562 leukemia, 57.1 µM; in the experiment with KM12 colon, > 100 µM. The TGI in the experiment with M14 melanoma was > 100 µM; in the experiment on MDA-MB-435, 18.4 µM; with MOLT-4 leukemia it was > 100 µM; in the experiment with NCI-H522 lung it was > 100 µM; in the experiment on OVCAR-5 ovarian it was > 100 µM; in the experiment on RPMI-8226 leukemia, > 100 µM. Moreover, the TGI in the experiment on SF-295 CNS was > 100 µM; in the experiment on SF-539 CNS it was 92.1 µM; with TK-10 renal it was > 100 µM.

Turning to `COc1ccc([C@H]2CC(=O)NCCCCN2)cc1`, the TGI with A498 renal, in the experiment with HCT-15 colon, with HOP-92 NSCLC, with HT29 colon, with IGROV1 ovarian and in the experiment on K-562 leukemia was > 100 µM throughout. The concentration for total growth inhibition (TGI) in the experiment with KM12 colon, in the experiment on M14 melanoma, with MOLT-4 leukemia, with NCI-H522 lung, with OVCAR-5 ovarian and in the experiment on RPMI-8226 leukemia was > 100 µM in each case. Further, the concentration for total growth inhibition (TGI) in the experiment with SF-295 CNS, in the experiment with SF-539 CNS and in the experiment with TK-10 renal was > 100 µM each time.

On to `Cn1c2ccccc2c(=NNc2ccccc2C(=O)O)c2ccccc21`, for which the TGI in the experiment on HCC-2998 colon was 46.8 µM; in the experiment on HCT-15 colon, 27.5 µM; in the experiment with HOP-92 NSCLC, 67.6 µM; with HT29 colon, 38.1 µM; in the experiment on IGROV1 ovarian, 94.3 µM; with K-562 leukemia, 28.5 µM. The TGI was 42.2 µM with KM12 colon; 53.5 µM with M14 melanoma; 39.6 µM in the experiment on MDA-MB-435; > 100 µM in the experiment on MOLT-4 leukemia; 33.3 µM in the experiment with NCI-H522 lung; 85 µM in the experiment on OVCAR-5 ovarian. Also, the total growth inhibition concentration (TGI) in the experiment with RPMI-8226 leukemia is 53.3 µM; in the experiment on SF-295 CNS, 82.6 µM; in the experiment with SF-539 CNS it was 36.1 µM; in the experiment with TK-10 renal, 75.2 µM.

As for `CC1(C)CN=C(Nc2cccc(C(F)(F)F)c2)S1`, the TGI in the experiment on HCC-2998 colon, in the experiment with HCT-15 colon, in the experiment with HOP-92 NSCLC, in the experiment on HT29 colon, with IGROV1 ovarian and in the experiment on K-562 leukemia was > 100 µM in each case. For the same compound, the TGI in the experiment on KM12 colon, with M14 melanoma, with MDA-MB-435, in the experiment on MOLT-4 leukemia, in the experiment on NCI-H522 lung and in the experiment with OVCAR-5 ovarian was > 100 µM each time. Besides, the TGI in the experiment with RPMI-8226 leukemia, with SF-295 CNS, with SF-539 CNS and in the experiment on TK-10 renal was > 100 µM throughout.

For the compound `COc1ccc2c(c1)N=C1CSC(c3cc([N+](=O)[O-])ccc3Cl)N1C2` (configuration not stated), the TGI in the experiment on HCC-2998 colon is 33 µM; in the experiment on HCT-15 colon it was 96.4 µM; in the experiment with HOP-92 NSCLC, 71.5 µM; in the experiment with HT29 colon, 68.4 µM; in the experiment with IGROV1 ovarian, > 100 µM; in the experiment on K-562 leukemia, > 100 µM. Further, the TGI with KM12 colon was 46.3 µM; in the experiment with M14 melanoma it was 86.8 µM; with MDA-MB-435, 47.6 µM; with MOLT-4 leukemia, 77.8 µM; with NCI-H522 lung, 57 µM; in the experiment on OVCAR-5 ovarian, 68.2 µM. Further, the concentration for total growth inhibition (TGI) with RPMI-8226 leukemia was 57.6 µM; with SF-295 CNS, > 100 µM; in the experiment on SF-539 CNS it was 71.2 µM; in the experiment with TK-10 renal, 55.4 µM.
